Assay results from US7678368B2, “Fucoidan-containing cosmetics” (Takara Bio Inc., priority 1999, dated 2010).

Columns and labels:
C3H/He mice [1] = assay: Trichogenous ratio, Fucoidan Bf combined with carpronium chloride or minoxidil (Example 19); type: in vivo, mouse; settings: for Trichogenous Ratio (%) (Trichogenous Area/Shaved Area): 200 μL once a day, 6 cases; for Trichogenous Ratio (%) (Trichogenous Area/Shaved Area) / Number of Individuals with Trichogenous Ratio of 60% or More: twenty-first day after shaving
Procedure: Male C3H/He mice were purchased from Nippon SLC and used for an experiment from 8 week-old after pre-breeding the mice. The hair on the backside of each mouse was cut with hair clippers, and thereafter shaved with a razor. […] The resulting ethanol solution was applied onto the above hair-cut site of the backside of the mice in an amount of 200 μL per mouse. To the control group, 30% ethanol solution was similarly applied. The mice were administered once a day, for consecutive days. The administered sites were observed over the passage of time from the day of the beginning of administration (the day following the shaving), and the trichogenous area was determined on the twenty-first day after shaving and expressed as the ratio (%) to the shaved area.

C3H/He mice [2] = assay: Hair restoring effect of sulfated monosaccharides, scoring as in Example 13(3) (Example 14(2)); type: in vivo, mouse; settings: 3% in 50% ethanol, 200 μL once a day, score 0-4
Procedure: The administered site was observed over the passage of time from the beginning of administration, and a change in the skin color tone was evaluated by scoring. Specifically, the scoring criteria were defined as follows: Score 0: no change in the skin color, Score 1: the skin color being changed to blue, Score 2: the skin color being changed to black-blue to gray, Score 3: trichogenous state being observed, and Score 4: the state before the hair cutting being almost restored. (3) Male C3H/He mice were purchased from Nippon SLC and used for an experiment from 8 week-old after pre-breeding the mice. The hair on the backside of each mouse was cut with hair clippers, and thereafter shaved with a razor. (2) The hair restoring effect of the sulfated glucose prepared in item (1) of Example 14 was studied in the same manner as in item (3) of Example 13. Here, the sulfated glucose was dissolved in 50% ethanol in a concentration of 3%, and the resulting solution was applied onto the backside of the mice once a day in an amount of 200 μL per mouse. To the control group, 50% ethanol alone was applied. […] In addition, similar tests were carried out for the sulfated fucose, the sulfated mannose, the sulfated galactose, the sulfated xylose, the sulfated 2-deoxy-glucose and the sulfated talose.

[3] = test system: whiskers with the hair follicles of C3H/He mice; assay: Culture of mouse whiskers with hair follicles, length of grown whisker (Examples 15-18); type: cell-based; settings: whiskers of 6 day-old mice (Table 14)
Excerpt: (1) Two day-old male C3H/He mice were purchased from Nippon SLC together with the mother mice and used for an experiment from 5 day-old. The mice were sacrificed by exsanguination, and the whiskers together with the subcutaneous tissues were collected using scissors and tweezers. Further, the whiskers with the hair follicles were separated in a petri dish under the microscope according to the method by Ogawa et al. (J. Invest. Dermatol 103: 306-309, 1994). Fourteen to sixteen whiskers were collected from the right and left sides per mouse. […] Here, the given concentrations of each sample added are respectively expressed as the concentration per mL medium (mg/mL) in Table 10. […] The length of whisker was determined to the order of 0.1 mm before the beginning and after the termination of the culture under the microscope using a caliper. […] In addition, Student's t-test was used for test of significance, and P value was determined against the control group. […] The hair restoring effects for the fucoidan derived from Kjellmaniella crassifolia described in item (1) of Example 1 and 7-12SFd-F described in item (3) of Example 2 were evaluated in the same manner as in item (1) of Example 15. […] The hair restoring effects for Fucoidan Bf described in item (1) of Example 16 and F-rich fucoidan described in item (2) of Example 16 were evaluated in the same manner as in item (1) of Example 15. […]

COC(=O)CCC[N+](C)(C)C.[Cl-] [Carpronium Chloride, carpronium chloride]
Trichogenous Ratio (%) (Trichogenous Area/Shaved Area) (C3H/He mice [1]; 0.5% in 30% ethanol): 23.9 ± 4.9%
Number of Individuals with Trichogenous Ratio of 60% or More (C3H/He mice [1]; 0.5% in 30% ethanol): 0/6
hair restoring effect (C3H/He mice [1]; administration by application alone (0.5%)): No hair restoring effect

Nc1cc(N2CCCCC2)nc(N)[n+]1[O-] [Minoxidil, minoxidil]
Trichogenous Ratio (%) (Trichogenous Area/Shaved Area) (C3H/He mice [1]; 0.1% in 30% ethanol): 42.9 ± 5.5%
Number of Individuals with Trichogenous Ratio of 60% or More (C3H/He mice [1]; 0.1% in 30% ethanol): 1/6
Trichogenous Ratio (%) (Trichogenous Area/Shaved Area) (C3H/He mice [1]; 1% in 30% ethanol): 69.1 ± 13.9%
Number of Individuals with Trichogenous Ratio of 60% or More (C3H/He mice [1]; 1% in 30% ethanol): 4/6

sulfated (—SO3—Na^+) D-(+)-glucose [Sulfated Glucose]
Average Score (C3H/He mice [2]; duration of administration 11 days): 0.6
Average Score (C3H/He mice [2]; duration of administration 12 days): 0.6
Average Score (C3H/He mice [2]; duration of administration 13 days): 1.0
Average Score (C3H/He mice [2]; duration of administration 14 days): 1.6
Average Score (C3H/He mice [2]; duration of administration 15 days): 1.8
Length of Grown Whisker (mm) (Average Value ± Standard Error) ([3]; 0.1 mg/mL): 0.39 ± 0.11 mm
Length of Grown Whisker (mm) (Average Value ± Standard Error) ([3]; 1 mg/mL): 1.31 ± 0.31 mm
